We go through two compounds from patent US11795378B2, “Iron control composition, make, and use in carbonate stimulation” (King Fahd University of Petroleum and Minerals, priority 2019, dated 2023).

Data set [1] in a line: Solubility and stability test of iron in concentrated HCl chelating agent formulations. Format: physicochemical. Conditions: 5 wt. % single chelating agent, 72° F. (22.2° C.). As for the experimental part: The solubility test was conducted at varying HCl and chelating agent concentrations. During the solubility test the concentration of HCl was set to either 20 wt. % (low) or 28 wt. % (high) concentration.
Each chelating agent was used alone with varied concentrations ranging from 1 to 10 wt %.
To the evaluate the capability of the generated formulation to sustain the iron in the solution without precipitation, 3000 ppm of iron was dissolved in the respective formulations, and, after that, the stability of the formulation as function of time was evaluated.
The effect of the pH on the performance of exemplary inventive formulations was evaluated by repeating the solubility and stability tests at varied pH values.

For data set [2] the following is noted: 5% chelating agent, 3000 ppm ferric ions; cited from earlier work.
The mark [3] stands for this setting: 20 wt. % HCl, 3000 ppm iron, 96 hours.
The mark [4] stands for this setting: 28 wt. % HCl at pH 5, 3000 ppm ferric ions, after 96 hours.

For `O=C(O)CN(CCO)CCN(CC(=O)O)CC(=O)O` [HEDTA, hydroxyethyl ethylenediamine triacetic acid], the “iron precipitation during stability evaluation” value in data set [1] (setting [3]) is listed as “no precipitation”; in data set [1] (setting [4]), “precipitation”.
As for `O=C(O)CC[C@@H](C(=O)O)N(CC(=O)O)CC(=O)O` [GLDA, glutamic acid N,N-diacetic acid], the “pH up to which ferric ions are kept in solution” value in data set [2] was “less than 3.0”. The “iron precipitation during stability evaluation” value in data set [1] (setting [3]) is recorded as “no precipitation”; in data set [1] (setting [4]) it was “precipitation”.
